In patent US9443060B2, “Method and system to provide personalized pharmaceutical compositions and dosages” (Volant Holdings GMBH, priority 2009, dated 2016):

Legend:
Assay type in all cases: in vivo, human
insulin resistance (IR) = assay: Glucose supply and insulin demand model: effect on insulin resistance; conditions: for IR reduction: adjustment factor = decrease in insulin resistance at the therapeutic dose of Table 1, T2D
Procedure: (§1) Therapeutic targets of the glucose supply (CE, 1+2; HGU, 3; GNG, 4; IR, 5) and insulin demand (PGU, 6; PIE, 7) model are presented in FIG. 1. To identify quantitative differences between antidiabetic agents on CE, HGU, GNG, IR, PGU, and PIE, multidatabase searches (Cochrane Central Register of Controlled Trials and Cochrane Register of Systematic Reviews, Embase, OVID Healthstar, OVID Journals, and PubMed) were conducted cross-referencing title and keywords for all selected antidiabetic therapies and their respective targets.
(§2) Alpha-glucosidase, biguanide, and thiazolidinedione (TZD) studies with long-term, pre-post design at maximal therapeutic doses were identified to simulate chronic administration. To maintain consistency with cardiovascular trials and accommodate known influences of hyperglycemia and hyperinsulinemia on the respective targets,^13-16 studies including patients with HbA1c in the range of 6-8% and body mass index (BMI)≧30 kg/m^2 were preferentially selected. In the event multiple studies were available to identify the effect of an agent on a therapeutic target, the mean percent change was used. Conversely, if there was evidence that an agent would elicit a response on a given target but no mathematical representation of the difference was provided, conservative estimates consistent with the scale of other agents and the degree of glucose regulation were instituted to best represent the expected effect. Individual agents were then characterized for the 24 h percent change from baseline for CE, HGU, GNG, IR, PGU, and PIE. Carbohydrate exposure was determined as the combined effect of caloric intake and intestinal carbohydrate absorption. Hepatic glucose uptake was defined as the reported value obtained immediately following oral glucose loading. Because GNG is known to be enhanced in the fasting state and persistent throughout the prandial phase,^17,18 effect was determined during the fasting state and considered equivalent throughout the prandial phase. For studies evaluating fasting glucose and insulin concentrations, an index of IR was determined by homeostasis model assessment of insulin resistance (HOM-AIR) using the following formula: Insulin (mU/liter)×Glucose (mmol)/22.5.^19 To account for known differences in secretory and uptake dynamics during the fasting and prandial phases, studies identifying the impact of therapies during the fasting state (or simulated hyperinsulinemic euglycemic clamp) and prandial phase (or oral glucose load insulin clamp) were specifically identified for changes in PGU (glucose infusion rate) and PIE (insulin concentrations) according to Equation (1): […]
(§3) For sulfonylurea and insulin-based therapies, insulin concentration time profiles were obtained and superimposed on the baseline 24 h insulin concentration time profile of T2D patients (FIG. 2) to calculate the increase in PIE (trapezoidal rule).^20 Calculated increases in incremental and cumulative insulin exposure were correlated to known insulin dose-response effects on HGU, GNG, and PGU (FIG. 3),^18,21 according to the equation y=mx+b. Twenty-four-hour increases in HGU, PGU, and PIE and decreases in GNG were compared to baseline values and percent change calculated.
(§4) With alpha-glucosidase, biguanide, TZD, secretagogue, and insulin therapies characterized for their respective impacts on CE, HGU, GNG, IR, PIE, and PGU, identification of their effect on the glucose supply (decrease in CE, increase in HGU, decrease in GNG, decrease in IR) and insulin demand (increase in PIE, increase in PGU) dynamic was assessed according to Equation (2), which provides the SD ratio according to the invention: […]

[1] = system: hepatic glucose uptake (HGU); assay: Glucose supply and insulin demand model: effect on hepatic glucose uptake; conditions: for HGU uptake: adjustment factor = increase in hepatic glucose uptake at the therapeutic dose of Table 1, T2D
Procedure: as §1, §2, §3, §4

[2] = system: peripheral glucose uptake (PGU); assay: Glucose supply and insulin demand model: effect on peripheral glucose uptake; conditions: for PGU: adjustment factor = increase in peripheral glucose uptake at the therapeutic dose of Table 1, T2D
Procedure: as §1, §2, §3, §4

[3] = system: hepatic gluconeogenesis (GNG); assay: Glucose supply and insulin demand model: effect on hepatic gluconeogenesis; conditions: for GNG inhibition: adjustment factor = decrease in hepatic gluconeogenesis at the therapeutic dose of Table 1, T2D
Procedure: as §1, §2, §3, §4

[4] = system: peripheral insulin exposure (PIE); assay: Glucose supply and insulin demand model: effect on peripheral insulin exposure; set-up: PIE (24 h insulin exposure): unit not given here; conditions: for PIE: adjustment factor = increase in peripheral insulin exposure at the therapeutic dose of Table 1, T2D
Procedure: as §1, §2, §3, §4
Twenty-four-hour steady state insulin concentration time curves were superimposed on the baseline secretion profile of the standard T2D patient.

[5] = system: carbohydrate exposure (CE); assay: Glucose supply and insulin demand model: effect on carbohydrate exposure; set-up: scale not given here; conditions: for CE inhibition: adjustment factor = decrease in carbohydrate exposure at the therapeutic dose of Table 1, T2D
Procedure: as §1, §2, §3, §4

[6] = Metformin 2000 mg, Glyburide 10 mg, Pioglitazone 45 mg, Insulin Glargine 0.5 U/kg daily, pH encapsulated glucose 3.0 grams/day
[7] = Insulin Glargine 1.0 U/Kg daily
[8] = insulin glargine 0.5 U/kg, from insulin dose-response relationship

Compound	IR reduction (insulin resistance (IR))	HGU uptake [1]	PGU [2]	GNG inhibition [3]	PIE [4]	CE inhibition [5]	further results
C[C@H]1O[C@H](O[C@H]2[C@H](O)[C@@H](O)[C@@H](O[C@H]3[C@H](O)[C@@H](O)C(O)O[C@@H]3CO)O[C@@H]2CO)[C@H](O)[C@@H](O)[C@@H]1N[C@H]1C=C(CO)[C@@H](O)[C@H](O)[C@H]1O (some centres unmarked) [Acarbose]	0.15	0.15	0.25	0.05	0.05		
CC(=O)c1ccc(S(=O)(=O)NC(=O)NC2CCCCC2)cc1 [Acetohexamide]	0.00	0.14	0.36	0.07	0.21		
CCCNC(=O)NS(=O)(=O)c1ccc(Cl)cc1 [Chlorpropamide]	0.00	0.14	0.36	0.07	0.21		
CCC1=C(C)CN(C(=O)NCCc2ccc(S(=O)(=O)NC(=O)N[C@H]3CC[C@H](C)CC3)cc2)C1=O [Glimepiride]	0.00	0.18	0.39	0.08	0.24		
Cc1cnc(C(=O)NCCc2ccc(S(=O)(=O)NC(=O)NC3CCCCC3)cc2)cn1 [Glipizide]	0.00			0.08			
COc1ccc(Cl)cc1C(=O)NCCc1ccc(S(=O)(=O)NC(=O)NC2CCCCC2)cc1 [Glyburide]	0.00	0.14	0.36	0.07	0.21		Score IR (insulin resistance (IR); [6]): 0.00; Score CE [5, 6]: 0.00; Score HGU [1, 6]: 0.14; Score PGU [2, 6]: 0.36; Score HGI [3, 6]: 0.07; Score PIE [4, 6]: 0.21
CC(C)[C@H]1CC[C@H](C(=O)N[C@H](Cc2ccccc2)C(=O)O)CC1 [Nateglinide]	0.00	0.21	0.60	0.11	0.34		
CCc1ccc(CCOc2ccc(CC3SC(=O)NC3=O)cc2)nc1 (centres unmarked) [Pioglitazone]	0.35	0.40	0.59	0.21	−0.10		Score IR (insulin resistance (IR); [6]): 0.35; Score CE [5, 6]: 0.00; Score HGU [1, 6]: 0.40; Score PGU [2, 6]: 0.59; Score HGI [3, 6]: 0.21; Score PIE [4, 6]: −0.10
CCOc1cc(CC(=O)N[C@@H](CC(C)C)c2ccccc2N2CCCCC2)ccc1C(=O)O [Repaglinide]	0.00	0.16	0.31	0.07	0.20		
CN(CCOc1ccc(CC2SC(=O)NC2=O)cc1)c1ccccn1 (centres unmarked) [Rosiglitazone]	0.39			0.23	−0.10		
Cc1ccc(S(=O)(=O)NC(=O)NN2CCCCCC2)cc1 [Tolazamide]	0.00	0.14	0.36	0.07	0.21		
CCCCNC(=O)NS(=O)(=O)c1ccc(C)cc1 [Tolbutamide]	0.00	0.14	0.36	0.07	0.21		
Cc1c(C)c2c(c(C)c1O)CCC(C)(COc1ccc(CC3SC(=O)NC3=O)cc1)O2 (centres unmarked) [Troglitazone]	0.35	0.40	0.67	0.22	−0.10		
Insulin Aspart	0.00	0.23	0.80	0.14	0.42	0.00	
Insulin Aspart Protamine	0.00	0.23	0.40	0.10	0.28	0.00	
Insulin Glargine	0.00	0.24	0.42	0.10	0.30	0.00	Score IR (insulin resistance (IR); [7]): 0.00; Score IR (insulin resistance (IR); [6]): 0.00; Score CE [5, 7]: 0.00; Score CE [5, 6]: 0.00; Score HGU [1, 7]: 0.48; Score HGU [1, 6]: 0.24; increase in HGU [1, 8]: 24%; Score PGU [2, 7]: 0.84; Score PGU [2, 6]: 0.42; increase in PGU [2, 8]: 42%; Score HGI [3, 7]: 0.20; Score HGI [3, 6]: 0.10; decrease in GNG [3, 8]: 10%; Score PIE [4, 7]: 0.60; Score PIE [4, 6]: 0.30; PIE (24 h insulin exposure) ([4]; insulin glargine 0.5 U/kg superimposed on standard T2D profile, baseline 5765): 7495; increase in PIE versus baseline ([4]; insulin glargine 0.5 U/kg, 24 h profile superimposed on standard T2D profile, trapezoidal rule): 30%
Insulin Isophane	0.00	0.23	0.40	0.10	0.28	0.00	
Insulin Lente	0.00	0.23	0.40	0.10	0.28	0.00	
Insulin Lispro	0.00	0.23	0.80	0.14	0.42	0.00	
